Test results published in patent US9511134B2, “Inducing immune responses to influenza virus using polypeptide and nucleic acid compositions” (priority 2006, dated 2016).

Biological target: T1, DRB1*0101 (Homo sapiens, UniProt P01903+P01911, A100R/D57E/F55L/F60I/F76Y/I96L/L162R/M171V/P40L/Q125E/R42F/V115G/Y59C)
T1 construct: made in house; host or cells: EBV-transformed homozygous human B cell lines, transfected fibroblasts or single-allele 721.221 transfectants
Test: biochemical
Format: binding
Conditions: IC50 nM to purified HLA DRB1*0101

Compound	IC50
CC[C@H](C)[C@H](NC(=O)[C@H](C)NC(=O)[C@H](CC(=O)O)NC(=O)[C@H](CC(N)=O)NC(=O)[C@@H]1CCCN1C(=O)[C@H](CCCCN)NC(=O)[C@H](CC(C)C)NC(=O)[C@@H](NC(=O)[C@@H](NC(=O)[C@H](Cc1c[nH]c2ccccc12)NC(=O)[C@H](Cc1ccccc1)NC(=O)[C@H](Cc1ccccc1)NC(=O)[C@H](CCC(=O)O)NC(=O)[C@H](CCSC)NC(=O)[C@@H](N)CCCNC(=N)N)[C@@H](C)O)[C@@H](C)CC)C(=O)O [Flu.HA.241]	62 nM
CC(C)C[C@H](NC(=O)CNC(=O)[C@@H](NC(=O)[C@H](C)NC(=O)[C@H](CC(C)C)NC(=O)[C@@H](NC(=O)[C@H](CC(C)C)NC(=O)[C@H](CCCNC(=N)N)NC(=O)[C@@H](N)CC(N)=O)C(C)C)[C@@H](C)O)C(=O)N[C@@H](CCCNC(=N)N)C(=O)N[C@@H](CC(N)=O)C(=O)N[C@@H](CO)C(=O)N1CCC[C@H]1C(=O)N[C@@H](CCC(N)=O)C(=O)N[C@@H](CCCNC(=N)N)C(=O)O [Flu.HA.325]	69 nM
CC[C@H](C)[C@H](NC(=O)[C@H](CCCCN)NC(=O)[C@@H](N)Cc1c[nH]cn1)C(=O)N[C@@H](Cc1ccccc1)C(=O)N[C@@H](CCCCN)C(=O)N[C@@H](CCSC)C(=O)N[C@@H](CCC(=O)O)C(=O)N[C@@H](CCCCN)C(=O)NCC(=O)N[C@@H](CCCCN)C(=O)N[C@H](C(=O)N[C@H](C(=O)N[C@@H](CCCCN)C(=O)N[C@@H](CO)C(=O)N[C@H](C(=O)N[C@@H](CCC(=O)O)C(=O)N[C@@H](CC(C)C)C(=O)O)C(C)C)C(C)C)C(C)C [Flu.NA.233]	64 nM
CC[C@H](C)[C@H](NC(=O)[C@H](CCC(=O)O)NC(=O)[C@H](CCSC)NC(=O)[C@H](CCC(=O)O)NC(=O)[C@H](CCC(=O)O)NC(=O)[C@@H](N)CCCCN)C(=O)N[C@H](C(=O)N[C@H](C(=O)N[C@@H](Cc1c[nH]cn1)C(=O)N[C@@H](Cc1ccccc1)C(=O)N[C@@H](CCC(N)=O)C(=O)N[C@@H](CCCNC(=N)N)C(=O)N[C@@H](CCCCN)C(=O)N[C@@H](CCCNC(=N)N)C(=O)N[C@@H](CCCNC(=N)N)C(=O)O)[C@@H](C)O)[C@@H](C)O [Flu.PB1.179]	1400 nM

Biological target: T2, DRB1*0401 (Homo sapiens, UniProt P01903+P01911, A100K/A169T/F76Y/I96L/K127E/L162R/M171V/N62H/P40V/Q125Y/R42H/S133A/S149N/S66Y/V115G/V209L/W38E)
T2 construct: made in house; host or cells: EBV-transformed homozygous human B cell lines, transfected fibroblasts or single-allele 721.221 transfectants
Test: biochemical
Format: binding
Conditions: read-out: IC50 nM to purified HLA DRB1*0401

Compound	IC50
CC[C@H](C)[C@H](NC(=O)[C@H](CCC(=O)O)NC(=O)[C@H](CCC(N)=O)NC(=O)[C@H](CCC(=O)O)NC(=O)[C@@H](NC(=O)[C@H](CCC(=O)O)NC(=O)[C@H](Cc1ccccc1)NC(=O)[C@@H](N)CC(C)C)C(C)C)C(=O)N[C@@H](CCCNC(=N)N)C(=O)N[C@H](C(=O)N[C@@H](Cc1ccccc1)C(=O)N[C@@H](CO)C(=O)N[C@@H](Cc1ccccc1)C(=O)N[C@@H](CCC(N)=O)C(=O)N[C@@H](CC(C)C)C(=O)O)[C@@H](C)O [Flu.NS2.182]	8800 nM
CC(C)C[C@H](NC(=O)[C@H](Cc1c[nH]cn1)NC(=O)[C@H](CO)NC(=O)[C@@H](N)CCCNC(=N)N)C(=O)N[C@@H](CCCNC(=N)N)C(=O)N[C@@H](CC(N)=O)C(=O)N[C@@H](CC(=O)O)C(=O)N[C@H](C(=O)N[C@@H](CC(=O)O)C(=O)N[C@H](C(=O)N[C@H](C(=O)N[C@@H](CC(N)=O)C(=O)N[C@@H](Cc1ccccc1)C(=O)N[C@H](C(=O)N[C@@H](CO)C(=O)O)C(C)C)C(C)C)C(C)C)[C@@H](C)O [Flu.PA.511]	200 nM
CSCC[C@H](NC(=O)[C@H](CC(C)C)NC(=O)[C@H](CCC(=O)O)NC(=O)[C@@H](N)Cc1c[nH]c2ccccc12)C(=O)N[C@@H](CC(=O)O)C(=O)N[C@@H](CCC(=O)O)C(=O)N[C@@H](CC(=O)O)C(=O)N[C@@H](Cc1ccc(O)cc1)C(=O)N[C@@H](CCC(N)=O)C(=O)NCC(=O)N[C@@H](CCCNC(=N)N)C(=O)N[C@@H](CC(C)C)C(=O)N[C@@H](CS)C(=O)N[C@@H](CC(N)=O)C(=O)N1CCC[C@H]1C(=O)O [Flu.PB1.616]	480 nM
CC[C@H](C)[C@H](NC(=O)[C@@H](NC(=O)[C@@H](N)CC(=O)O)C(C)C)C(=O)N[C@@H](CCSC)C(=O)N[C@@H](CCC(=O)O)C(=O)N[C@H](C(=O)N[C@H](C(=O)N[C@@H](Cc1ccccc1)C(=O)N1CCC[C@H]1C(=O)N[C@@H](CC(N)=O)C(=O)N[C@@H](CCC(=O)O)C(=O)N[C@H](C(=O)NCC(=O)N[C@@H](C)C(=O)N[C@@H](CCCNC(=N)N)C(=O)O)C(C)C)C(C)C)C(C)C [Flu.PB2.164]	1100 nM
